What was measured:
DNA-PK = DNA-PK (Homo sapiens, UniProt P78527); test: crystallographic and enzyme kinetics studies; assay type: biochemical
DNA-PK (p-Ser2056) [1] = target: T1, DNA-PK (p-Ser2056) (Homo sapiens, UniProt P78527); test: IR-induced DNA-PK phosphorylation in tumor tissue, ELISA, FaDu xenograft; assay type: in vivo; conditions: IR 50 Gy
T1 construct: from tissue; host or cells: human tumor xenografts (FaDu, HCT116, WM164) grown in mice
Description: (§1) Following the induction of DSB by radiation therapy or other DNA damaging agents, the catalytic subunit of DNA-PK (DNA-PKc) is autophosphorylated at several serine and threonine residues. Ser2056 is one of the most prominent and best studied autophosphorylation sites. Because Ser2056 phosphorylation (p-Ser2056) correlated well with DNA-PK activation state it was chosen as the pharmacodynamics (PD) biomarker. Two different assay formats were established to measure p-Ser2056 in tumor tissue: ELISA and MSD format. In order to detect sequence reliable signal, IR was used at 50 Gy for the ELISA assay and 10 Gy for the more sensitive MSD assay.

DNA-PK (p-Ser2056) [2] = target: T1, DNA-PK (p-Ser2056); test: IR-induced DNA-PK phosphorylation in tumor tissue, MSD assay, WM164 xenograft; assay type: in vivo
Description: as §1

[3] = system: myeloid and lymphoid cells; test: Hematology study, blood cell counts in immunocompetent mice; assay type: in vivo, mouse; conditions: addition of Compound 1 to etoposide/cisplatin
Description: For efficacy xenograft study 1014-1-58/BKU00105 female CD1 nu/nu mice [internal Batch ID 04108; Charles River Laboratories, Sulzfeld, Germany], aged 6-8 weeks, were used. For the hematology study 1015-1-3/BKU00106 immunocompetent female CD1 mice [internal Batch ID1406; Janvier Labs, Genest-Saint-Isle, France], aged 12 weeks were used. The mice were acclimatized to the housing conditions for 1 week. They were kept in groups of 10 in polysulfone cages Type III (42.5×26.6×15.5 cm; Techniplast, Hohenpeissenberg). Bedding consisted of aspen chips (E. Becker, Castrop-Rauxel). Room temperature was 24+/−2° C. and relative humidity was 50+/−10% at 15 air changes per hour. Drinking water (provided ad libitum) was supplemented with 1 mg/mL Chlorine and was adjusted to a pH of 6.5 with HCl. […]
The hematology data were evaluated by RM-ANOVA and Bonferroni multiple comparisons post test comparing the blood cell counts of the respective combination groups to the blood cell counts of the SoC only treatment group.
In parallel with the antitumor effect of the etoposide/cisplatin/Compound 1 combination, the effect on myeloid and lymphoid cells was investigated in immunocompetent mice (refer to ONC1015-1-3AZ). […] Blood cell count was determined under treatment (days 5 and 11) and during recovery (days 18 and 24).

[4] = system: LoVo colon carcinoma xenografts; test: Single agent efficacy, ATM pathway deficient LoVo xenograft; assay type: in vivo, mouse
Description: We tested the effect of Compound 1 on the growth of established LoVo colon carcinoma xenografts that are known to be deficient in ATM pathway function due to mutation in the MRE11 protein.

MO59K (DNA-PK wild type) = test: AlamarBlue viability assay; assay type: cell-based, human
HCT15 = test: cells; conditions: Homo sapiens, HCT-15, read-out: GI50 of etoposide (±Compound 1)
JIMT1 = test: Single agent activity, panel of 81 cancer cell lines plus PBMC; assay type: cell-based; conditions: Homo sapiens, JIMT-1
DLD1 = test: cells; conditions: Homo sapiens, DLD-1, read-out: GI50 of etoposide (±Compound 1)
SF268 = test: SRB growth inhibition, 93 cell lines panel; conditions: Homo sapiens, SF-268, read-out: GI50 of etoposide (±Compound 1)
SF295 = test: SRB growth inhibition, 93 cell lines panel; conditions: Homo sapiens, SF-295, read-out: GI50 of etoposide (±Compound 1)
lung cancer cell lines = test: cells; conditions: read-out: Median etoposide concentration needed to reach GI50
SKNAS = test: SRB growth inhibition, 93 cell lines panel; conditions: Homo sapiens, SK-N-AS, read-out: GI50 of etoposide (±Compound 1)
T24 = test: cells; conditions: Homo sapiens, T-24, read-out: GI50 of etoposide (±Compound 1)
SKNSH = test: SRB growth inhibition, 93 cell lines panel; conditions: Homo sapiens, SK-N-SH, read-out: GI50 of etoposide (±Compound 1)

Row | GI50 (HCT15) [µM] | GI50 (JIMT1) [µM] | GI50 (DLD1) [µM] | GI50 (lung cancer cell lines) [µM] | GI50 (SKNAS) [µM] | GI50 (T24) [µM] | GI50 (SKNSH) [µM] | SMILES | inhibition of DNA-PK, mode (DNA-PK) | inhibition of IR-induced DNA-PK phosphorylation (Ser2056) (DNA-PK (p-Ser2056) [1]) | inhibition of IR-induced DNA-PK phosphorylation (Ser2056) (DNA-PK (p-Ser2056) [2]; WM164, MSD assay, IR 10 Gy) | DNA-PK autophosphorylation in tumor tissue (DNA-PK (p-Ser2056) [2]; WM164, 25 mg/kg 10 minutes prior to 10 Gy IR) | blood cell reduction and recovery [3] | tumor growth suppression ([4]; 150 mg/kg, three weeks) | tumor growth inhibition ([4]; three week administration) | inhibition of viability, combination with etoposide (MO59K (DNA-PK wild type)) | potentiation of etoposide, Compound 1 in comparison to VX-984 (MO59K (DNA-PK wild type); compound incubation for 72 h) | GI50 (SF268) [µM] | GI50 (SF295) [µM]
1 | – | – | – | – | – | – | – | COc1ccc([C@@H](O)c2cc(-c3ncnc4cc(N5CCOCC5)ccc34)c(F)cc2Cl)nn1 [Compound 1, (S)-[2-chloro-4-fluoro-5-(7-morpholin-4-yl-quinazolin-4-yl)-phenyl]-(6-methoxy-pyridazin-3-yl)-methanol] | potent and selective ATP-competitive inhibitor | Dose-dependent inhibition | Dose-dependent inhibition | inhibition of DNA-PK autophosphorylation | did not significantly affect blood cell reduction nor the recovery phase | nearly complete growth suppression | dose-dependent tumor growth inhibition | enhanced inhibition of viability | compares favorably | – | –
2 | 1.47 | > 10 | 1.35 | 0.32 | 2.15 | 2.53 | 0.265 | COc1cc([C@@H]2c3cc4c(cc3[C@@H](O[C@@H]3O[C@@H]5CO[C@@H](C)O[C@H]5[C@H](O)[C@H]3O)[C@H]3COC(=O)[C@H]23)OCO4)cc(OC)c1O [Etoposide] | – | – | – | – | – | – | – | – | – | 1.97 | 1.16
